Values joined by “and” are separate entries in the source; they are usually repeats but may differ in a detail not shown here. Identical values can stand only once. Counter-ions that a name gives are not always drawn. Like-named read-outs stand apart in the source and are kept apart here.
Legend:
Assay type in all cases: in vivo
[1] = tested on: Male SD rats; experiment: Onset time, last time, palinesthesia time and adverse effects at 2ED50 via the rat tail vein; details: for Incidence of adverse effect: Anal sphincter dilatation / Incidence of adverse effect: Bucking / Incidence of adverse effect: Hindlimb stiffness / Incidence of adverse effect: Muscle tremor / Incidence of adverse effect: Tic of limbs / Incidence of adverse effect: Vomiting / Onset time: 10 rats per group; for Last time: disappearance to recovery of body-righting reflex; for Palinesthesia tune / Palinesthesia time: recovery to full recovery of body-righting reflex
Method: (§1) Male SD rats (250˜300 g) were used as an experimental animal, and 50% effective dose (ED50) was determined by the sequential method. Three compounds were dissolved in a solvent of DMSO, and etomidate was used as the commercially-available formulation (B BRAUN, Etomidate-Lipuro®, 20 mg/10 mL). Based on the initial dose of 1 mg/kg, other dosages were adjusted as the ratio of 0.8, and the ED50 values of the three compounds and etomidate were determined. Extinction time ≥30 s for the rat body-righting reflex was the positive marker while no disappearance of the righting reflex was considered invalid. Based on the experimental results, four cross-points were formed, and the ED50 values were calculated. […] Then, the respective 2ED50 values of the three compounds and etomidate were taken in an equivalent dose, which were administered via the rat tail vein. The preliminary effects were evaluated in the four rat groups, which were given the three compounds of Formulas (I), (IV), (V) and etomidate, respectively, with 10 rats in each group. […] The last time of the Formula (I) compound and etomidate was 5-6 min, but the last time of the Formulas (IV) and (V) compounds was 10-20 min. […] DMSO had no pharmacological effects, and no adverse effects were observed. The onset time, the last time, and the adverse effects (types, incidence rates) induced by the three compounds and etomidate are shown in the following table:
(§2) Male SD rats (250˜300 g) were used as an experimental animal, and 50% effective dose (ED50) was determined by the sequential method. Hydrochlorides of the three compounds were dissolved in the solvent of normal saline, and etomidate was used as the commercially-available formulation (B BRAUN, Etomidate-Lipuro®, 20 mg/10 mL). The initial dose was 1 mg/kg, and the ratio of dosage variation was 0.8, which was applied in the determination of ED50 values of Formula (I) hydrochloride, Formula (I) hydrobromide, Formula (I) trifluoroacetate, and etomidate. Extinction time (≥30 s) of the rat body-righting reflex was the positive marker while no disappearance of the reflex was considered invalid. Based on the experimental results, four cross-points were formed, and then ED50 values were calculated. […] Then, the respective 2ED50 values of the three compounds and etomidate were taken in an equivalent dose, which were administered via the rat tail vein. The preliminary effects were evaluated in the four rat groups, which were given the three compounds of Formulas (I) hydrochloride, Formula (I) hydrobromide, Formula (I) trifluoroacetate, and etomidate, respectively, with 10 rats in each group. […] Palinesthesia time was in arrange of 5-10 min. During the test period, no significant difference was found in the types and the incidence rates of adverse effects in each group. DMSO had no pharmacological effects, and no adverse effect was found. The onset time, the last time, and the types and the incidence rates of adverse effects induced by the three salt compounds and etomidate are shown in the following table: […]

[2] = tested on: Male SD rats; experiment: ED50 by the sequential method, extinction of rat body-righting reflex; details: etomidate as Etomidate-Lipuro, extinction of body-righting reflex ≥30 s; for ED50: Rattus norvegicus, read-out: 50% effective dose (ED50)
Method: as §1, §2

[3] = tested on: self-synthesis of adrenocortical hormone; experiment: Increase degree of cortical hormone (cortisol, corticosterone) in blood serum after ACTH stimulation, ELISA; details: Beagle dogs; for Increase degree of corticosterone / Increase degree of cortisol: 2ED50, dexamethasone baseline, 1 h after ACTH
Method: Male Beagle dogs (10±2 kg) were selected as an experimental animal. After administration, the contents of corticosterone and cortisol in the blood serum of the Beagle dogs were determined by the ELISA kit and the enzyme-labelled instrument. The 20 Beagle dogs were divided into five groups, with four dogs in each group. After respective administration of dexamethasone (0.01 mg/kg), the level of adrenal cortex in the dog body was lowered to the baseline, and those levels of corticosterone and cortisol at this time were used as the base value (baseline). […] After 10 min, ACTH (adrenocortical hormone) was given to stimulate and cause an increased level of cortex in the dog body. One hour after administration of ACTH, both corticosterone and cortisol levels in the blood serum of the Beagle dogs were determined, and the ratio of the peak value to the base value of the cortex levels was calculated. This ratio indicated the increase degree of the cortical hormone. A greater degree indicated a less inhibitory effect of the medicine on the cortical hormone. After administration, compounds of Formulas (I), (IV) and (V), DMSO, and the increase degree of the cortical hormone followed by stimulation of ACTH are shown in the following table:
Male Beagle dogs (10±2 kg) were selected as an experimental animal. After administration, the contents of corticosterone and cortisol in the blood serum of the Beagle dogs were determined by the ELISA kit and the enzyme-labelled instrument. The 20 Beagle dogs were divided into five groups, with four dogs in each group. After respective administration of dexamethasone (0.01 mg/kg), the level of adrenal cortex in the dog body was lowered to the baseline, and the levels of corticosterone and cortisol at this time were used as the baseline. Then, the equivalent doses (2ED50) of the compounds of Formula (I) hydrochloride (3.62 mg/kg), hydrobromide (3.86 mg/kg), trifluoroacetate (4.66 mg/kg), the positive control medicine Etomidate-Lipuro® (0.9 mg/kg), and the equal-volume of solvent DMSO were respectively administrated into the dogs of the five groups. After 10 min, ACTH was given to stimulate and cause the cortex levels increase in the dog body. One hour after administration of ACTH, both the cortical hormone levels were determined, and the ratio of the peak value to the baseline of cortex levels was calculated. This ratio indicated the increase degree of the cortical hormone. A greater degree of increase indicated a less inhibitory effect of the medicine on the cortical hormone. After administrations, the three salts of the Formula (I) compound, DMSO, the increase degree of the cortical hormone followed by stimulation of ACTH are shown in the following table: […]

[4] = Example 10, ratio of peak value to base value
[5] = Example 9, 2ED50 via tail vein, listed as Formula (I) hydrobromide
[6] = Example 11, ratio of peak value to baseline
[7] = Example 9, 2ED50 via tail vein, listed as Formula (I) hydrochloride
[8] = Example 9, 2ED50 via tail vein, listed as Formula (I) trifluoroacetate

Structure (SMILES)	sedative-hypnotic and general anesthetic effects (conclusion in words) ([1]; Example 8)	types and incidence rates of the adverse effects (in words) ([1]; Example 8, 2ED50 via tail vein)	Incidence of adverse effect: Anal sphincter dilatation ([1]; Example 8, 2ED50 via tail vein)	Incidence of adverse effect: Bucking ([1]; Example 8, 2ED50 via tail vein)	Incidence of adverse effect: Hindlimb stiffness ([1]; Example 8, 2ED50 via tail vein)	Incidence of adverse effect: Muscle tremor ([1]; Example 8, 2ED50 via tail vein)	Onset time ([1]; Example 8, 2ED50 via tail vein)	Last time ([1]; Example 8, 2ED50 via tail vein)	Palinesthesia tune ([1]; Example 8, 2ED50 via tail vein)	ED50 ([2]; Example 8, compounds in DMSO)	Increase degree of corticosterone [3, 4]	Increase degree of cortisol [3, 4]	sedative-hypnotic and general anesthetic effects (conclusion in words) ([1]; Example 9)	Incidence of adverse effect: Muscle tremor ([1]; Example 9, 2ED50 via tail vein)	Onset time ([1]; Example 9, 2ED50 via tail vein)	Last time ([1]; Example 9, 2ED50 via tail vein)	Palinesthesia time ([1]; Example 9, 2ED50 via tail vein)	cortical hormone increase after stimulation by ACTH (conclusion in words) ([3]; Example 11)	Increase degree of corticosterone [3, 6]	Increase degree of cortisol [3, 6]	other results
COCCOC(=O)c1cncn1C(C)c1ccccc1 (racemic) [Compound V]	lower potency, elongated onset time, extended last time, and increased types and incidence rates of adverse effects	obviously increased	(2/10), 20%;	Bucking (4/10), 40%	20%;	60%;	a little slower action and 1.0 ± 0.6 min	10.8 ± 3.5 min	15.1 ± 2.6 min	10.4 mg/kg	3.18 ± 1.15	5.17 ± 2.28	–	–	–	–	–	–	–	–	Incidence of adverse effect: Tic of limbs ([1]; Example 8, 2ED50 via tail vein): Tic of limbs (5/10), 50%;; Incidence of adverse effect: Vomiting ([1]; Example 8, 2ED50 via tail vein): Vomiting (5/10), 50%;
COCCOC(=O)c1cncn1[C@@H](C)c1ccccc1 [Compound IV]	lower potency, elongated onset time, extended last time, and increased types and incidence rates of adverse effects	obviously increased	(5/10), 50%;	Bucking (6/10), 60%	50%;	100%;	2.2 ± 0.8 min	20.3 ± 4.6 min	21.4 ± 2.3 min	7.46 mg/kg	1.19 ± 0.87	3.32 ± 2.36	–	–	–	–	–	–	–	–	Incidence of adverse effect: Tic of limbs ([1]; Example 8, 2ED50 via tail vein): Tic of limbs (7/10), 70%;; Incidence of adverse effect: Vomiting ([1]; Example 8, 2ED50 via tail vein): Vomiting (7/10), 70%;; Onset time ([1]; Example 8, 2ED50 via tail vein, listed as Formula (IV)): a little slower action
COCCOC(=O)c1cncn1[C@H](C)c1ccccc1 [Compound I]	good sedative-hypnotic and general anesthetic effects	–	–	–	–	70%	Immediate	5.8 ± 0.9 min	4.8 ± 1.3 min	2.1 mg/kg	11.46 ± 4.30	19.88 ± 19.8	–	–	–	–	–	–	–	–	Onset time ([1]; Example 8, 2ED50 via tail vein, listed as Formula (I) compound): immediate action; inhibition on cortical hormone (conclusion in words) ([3]; Example 10, after stimulation by ACTH): obviously reduced when compared with that of the control medicine etomidate
COCCOC(=O)c1cncn1[C@H](C)c1ccccc1 [Hydrobromide of Formula (I) compound]	–	–	–	–	–	–	–	–	–	–	–	–	good sedative-hypnotic and general anesthetic effects	50%	Immediate	4.6 ± 1.1 min	5.8 ± 1.2 min	lower than that in the blank group of the dogs, but obviously higher than that in the positive medicine etomidate group of the dogs	12.36 ± 6.65	29.14 ± 11.86	Onset time [1, 5]: immediate action; Last time [1, 5]: 5 to 6 min; 50% effective dose (ED50) ([2]; Example 9, salts in normal saline, listed as Formula (I) hydrobromide): 3.09 mg/kg
COCCOC(=O)c1cncn1[C@H](C)c1ccccc1 [Hydrochloride of Formula (I) compound]	–	–	–	–	–	–	–	–	–	–	–	–	good sedative-hypnotic and general anesthetic effects	60%	Immediate	5.8 ± 0.7 min	5.6 ± 1.8 min	lower than that in the blank group of the dogs, but obviously higher than that in the positive medicine etomidate group of the dogs	18.14 ± 5.66	25.36 ± 14.77	Onset time [1, 7]: immediate action; Last time [1, 7]: 5 to 7 min; ED50 ([2]; Example 9, salts in normal saline): 2.58 mg/kg
COCCOC(=O)c1cncn1[C@H](C)c1ccccc1 [Trifluoroacetate of Formula (I) compound]	–	–	–	–	–	–	–	–	–	–	–	–	good sedative-hypnotic and general anesthetic effects	(5/10), 50%	Immediate	3.6 ± 1.3 min	8.2 ± 3.3 min	lower than that in the blank group of the dogs, but obviously higher than that in the positive medicine etomidate group of the dogs	13.64 ± 4.22	26.14 ± 13.89	Onset time [1, 8]: immediate action; Last time [1, 8]: 4 to 7 min; 50% effective dose (ED50) ([2]; Example 9, salts in normal saline, listed as Formula (I) trifluoroacetate): 3.61 mg/kg
